Experiments:
Thromboxane-A synthase = biological target: T1, Thromboxane-A synthase (Homo sapiens, UniProt P24557); assay: biochemical; type: tissue-based, Platelet; conditions: platelet;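 also: enzyme inhibition assay with PGH2 supplied as substrate; in other assays of this panel Not Active means under 50% inhibition at 10 µM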
T1 sequence (P24557 whole entry): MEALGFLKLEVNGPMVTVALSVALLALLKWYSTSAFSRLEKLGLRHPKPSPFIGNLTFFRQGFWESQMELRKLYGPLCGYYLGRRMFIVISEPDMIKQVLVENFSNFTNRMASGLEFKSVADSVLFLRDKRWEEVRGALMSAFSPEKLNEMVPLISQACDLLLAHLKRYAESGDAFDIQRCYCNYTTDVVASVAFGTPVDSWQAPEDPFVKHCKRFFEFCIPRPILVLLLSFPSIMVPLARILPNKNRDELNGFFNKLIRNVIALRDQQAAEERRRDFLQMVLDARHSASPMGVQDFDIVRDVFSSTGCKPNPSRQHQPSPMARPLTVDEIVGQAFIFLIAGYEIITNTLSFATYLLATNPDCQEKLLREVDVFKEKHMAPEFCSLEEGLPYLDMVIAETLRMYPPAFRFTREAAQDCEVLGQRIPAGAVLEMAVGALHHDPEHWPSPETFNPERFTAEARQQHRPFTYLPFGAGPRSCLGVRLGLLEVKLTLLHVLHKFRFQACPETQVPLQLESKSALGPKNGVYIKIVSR

[1] = biological target: 5-hydroxytryptamine receptor 2B (Homo sapiens, UniProt P41595); type: cell membranes, CHO-K1, Membrane; conditions: for Ki: read-out: Ki; as to all read-outs here: in other assays of this panel Not Active means under 50% inhibition at 10 µM
Sequence of 5-hydroxytryptamine receptor 2B (P41595 whole entry): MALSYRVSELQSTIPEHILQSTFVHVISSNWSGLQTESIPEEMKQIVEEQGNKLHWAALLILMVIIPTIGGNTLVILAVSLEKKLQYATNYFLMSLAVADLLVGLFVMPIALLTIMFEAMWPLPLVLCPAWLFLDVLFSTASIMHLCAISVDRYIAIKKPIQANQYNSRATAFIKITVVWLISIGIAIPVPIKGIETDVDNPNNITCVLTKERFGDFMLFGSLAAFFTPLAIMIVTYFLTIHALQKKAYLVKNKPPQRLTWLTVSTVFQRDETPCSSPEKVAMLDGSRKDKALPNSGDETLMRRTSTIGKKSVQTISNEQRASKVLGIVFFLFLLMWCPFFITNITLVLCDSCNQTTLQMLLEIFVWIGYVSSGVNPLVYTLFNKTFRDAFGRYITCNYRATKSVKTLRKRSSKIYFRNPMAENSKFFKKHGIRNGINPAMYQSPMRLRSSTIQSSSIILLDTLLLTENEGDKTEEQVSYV

Mu-type opioid receptor = Mu-type opioid receptor (Homo sapiens, UniProt P35372); assay: DRUGMATRIX: Opiate mu (OP3, MOP) radioligand binding (ligand: [3H] Diprenorphine); type: cell membranes, CHO-K1, Membrane; conditions: cho-k1; Not Active = under 50% inhibition at 10 µM
Sequence of Mu-type opioid receptor (P35372 whole entry): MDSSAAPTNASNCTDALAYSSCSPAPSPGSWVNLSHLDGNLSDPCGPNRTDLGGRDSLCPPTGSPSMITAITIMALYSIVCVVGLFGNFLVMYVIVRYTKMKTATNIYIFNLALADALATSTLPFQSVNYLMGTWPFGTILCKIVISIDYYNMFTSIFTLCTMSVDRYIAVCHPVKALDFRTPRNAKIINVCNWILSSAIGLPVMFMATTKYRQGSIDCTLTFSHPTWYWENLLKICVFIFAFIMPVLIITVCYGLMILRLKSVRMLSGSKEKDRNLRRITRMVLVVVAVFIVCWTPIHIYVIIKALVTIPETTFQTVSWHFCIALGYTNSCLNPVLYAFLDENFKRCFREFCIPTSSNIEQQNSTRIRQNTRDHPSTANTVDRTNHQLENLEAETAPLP

[2] = biological target: Mitogen-activated protein kinase 1 (Homo sapiens, UniProt P28482); assay: DRUGMATRIX: Protein Serine/Threonine Kinase, ERK2 enzyme inhibition (substrate: Myelin Basic Protein); design: species or system Escherichia coli; conditions: Not Active = under 50% inhibition at 10 µM
Sequence of Mitogen-activated protein kinase 1 (P28482 whole entry): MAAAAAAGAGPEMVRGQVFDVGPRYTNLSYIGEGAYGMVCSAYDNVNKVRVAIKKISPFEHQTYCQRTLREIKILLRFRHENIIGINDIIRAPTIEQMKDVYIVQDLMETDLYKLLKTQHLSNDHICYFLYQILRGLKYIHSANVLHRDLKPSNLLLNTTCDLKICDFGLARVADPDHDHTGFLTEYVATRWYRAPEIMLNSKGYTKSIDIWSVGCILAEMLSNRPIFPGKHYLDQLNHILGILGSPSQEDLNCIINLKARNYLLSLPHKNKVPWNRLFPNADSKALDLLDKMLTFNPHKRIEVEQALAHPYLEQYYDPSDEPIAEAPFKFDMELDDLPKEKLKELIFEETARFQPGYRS

[3] = DRUGMATRIX: beta-Lactamase enzyme inhibition (substrate: Nitrocefin); design: species or system Bacillus cereus; conditions: Not Active = under 50% inhibition at 10 µM
Cytochrome P450 3A4 = Cytochrome P450 3A4 (Homo sapiens, UniProt P08684); conditions: bti-tn-5b1-4; also: in other assays of this panel Not Active means under 50% inhibition at 10 µM
Sequence of Cytochrome P450 3A4 (P08684 whole entry): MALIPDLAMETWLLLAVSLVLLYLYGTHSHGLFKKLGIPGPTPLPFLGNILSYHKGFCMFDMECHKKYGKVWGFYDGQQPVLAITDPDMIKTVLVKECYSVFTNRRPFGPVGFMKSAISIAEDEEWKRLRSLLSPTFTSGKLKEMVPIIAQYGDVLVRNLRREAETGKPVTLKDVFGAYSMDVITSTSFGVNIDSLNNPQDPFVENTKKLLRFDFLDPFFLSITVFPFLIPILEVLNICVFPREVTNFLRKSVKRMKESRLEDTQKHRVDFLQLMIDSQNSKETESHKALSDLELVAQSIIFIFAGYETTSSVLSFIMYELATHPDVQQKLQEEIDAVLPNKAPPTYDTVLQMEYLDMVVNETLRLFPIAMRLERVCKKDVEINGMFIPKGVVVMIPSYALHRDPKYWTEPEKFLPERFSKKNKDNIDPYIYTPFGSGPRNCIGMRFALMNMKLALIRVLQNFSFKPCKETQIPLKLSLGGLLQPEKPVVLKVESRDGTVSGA

[4] = biological target: T2, C-X-C chemokine receptor type 1 (Homo sapiens, UniProt P25024); also: in other assays of this panel Not Active means under 50% inhibition at 10 µM
T2 sequence (P25024 whole entry): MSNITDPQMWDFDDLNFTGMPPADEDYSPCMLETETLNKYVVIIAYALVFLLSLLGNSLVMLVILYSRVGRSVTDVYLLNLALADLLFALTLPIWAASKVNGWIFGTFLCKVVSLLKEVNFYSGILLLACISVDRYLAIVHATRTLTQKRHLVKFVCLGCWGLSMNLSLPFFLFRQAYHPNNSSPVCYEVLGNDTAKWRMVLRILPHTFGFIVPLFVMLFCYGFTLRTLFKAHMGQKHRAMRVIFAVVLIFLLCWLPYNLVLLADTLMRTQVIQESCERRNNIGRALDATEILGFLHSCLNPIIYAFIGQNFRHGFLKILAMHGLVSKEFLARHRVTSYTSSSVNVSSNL

CC[C@H]1CN2CCc3cc(OC)c(OC)cc3[C@@H]2C[C@@H]1C[C@H]1NCCc2cc(OC)c(OC)cc21 [EMETINE]
Not Active: IC50 (Thromboxane-A synthase) | IC50 ([1]; cho-k1) | IC50 (Mu-type opioid receptor) | IC50 [2] | IC50 [3] | Ki [3] | IC50 (Cytochrome P450 3A4) | Ki (Cytochrome P450 3A4) | IC50 [4]

COC(=O)CCc1ccc(OCC(O)CNC(C)C)cc1 (stereo not drawn) [ESMOLOL]
Not Active: IC50 (Thromboxane-A synthase) | IC50 ([1]; cho-k1) | IC50 (Mu-type opioid receptor) | IC50 [2] | IC50 [3] | Ki [3] | IC50 (Cytochrome P450 3A4) | Ki (Cytochrome P450 3A4) | IC50 [4]

CCC1(C)CC(=O)NC1=O (stereo not drawn) [ETHOSUXIMIDE]
Not Active: IC50 (Thromboxane-A synthase) | IC50 ([1]; cho-k1) | IC50 (Mu-type opioid receptor) | IC50 [2] | IC50 [3] | Ki [3] | IC50 (Cytochrome P450 3A4) | Ki (Cytochrome P450 3A4) | IC50 [4]

C#C[C@]1(OC(C)=O)CC[C@H]2[C@@H]3CCC4=C[C@@H](OC(C)=O)CC[C@@H]4[C@H]3CC[C@@]21C [ETHYNODIOL DIACETATE]
Not Active: IC50 (Thromboxane-A synthase) | IC50 ([1]; cho-k1) | IC50 (Mu-type opioid receptor) | IC50 [2] | IC50 [3] | Ki [3] | IC50 (Cytochrome P450 3A4) | Ki (Cytochrome P450 3A4) | IC50 [4]

C=CCc1ccc(O)c(OC)c1 [EUGENOL]
Not Active: IC50 (Thromboxane-A synthase) | IC50 ([1]; cho-k1) | IC50 (Mu-type opioid receptor) | IC50 [2] | IC50 [3] | Ki [3] | IC50 (Cytochrome P450 3A4) | Ki (Cytochrome P450 3A4) | IC50 [4]

CC(C(=O)O)c1cccc(Oc2ccccc2)c1 (stereo not drawn) [FENOPROFEN]
Not Active: IC50 (Thromboxane-A synthase) | IC50 ([1]; cho-k1) | IC50 (Mu-type opioid receptor) | IC50 [2] | IC50 [3] | Ki [3] | IC50 (Cytochrome P450 3A4) | Ki (Cytochrome P450 3A4) | IC50 [4]

CC(C)(C)NC(=O)[C@H]1CC[C@H]2[C@@H]3CC[C@H]4NC(=O)C=C[C@]4(C)[C@H]3CC[C@]12C [FINASTERIDE]
Not Active: IC50 (Thromboxane-A synthase) | IC50 ([1]; cho-k1) | IC50 (Mu-type opioid receptor) | IC50 [2] | IC50 [3] | Ki [3] | IC50 (Cytochrome P450 3A4) | Ki (Cytochrome P450 3A4) | IC50 [4]

Nc1ccn([C@@H]2O[C@H](CO)[C@@H](O)C2(F)F)c(=O)n1 [GEMCITABINE]
Not Active: IC50 (Thromboxane-A synthase) | IC50 ([1]; cho-k1) | IC50 (Mu-type opioid receptor) | IC50 [2] | IC50 [3] | Ki [3] | IC50 (Cytochrome P450 3A4) | Ki (Cytochrome P450 3A4) | IC50 [4]

N=C(N)NC(=O)Cc1c(Cl)cccc1Cl [GUANFACINE]
1.34 µM: Ki [1]
Not Active: IC50 (Thromboxane-A synthase) | IC50 (Mu-type opioid receptor) | IC50 [2] | IC50 [3] | Ki [3] | IC50 (Cytochrome P450 3A4) | Ki (Cytochrome P450 3A4) | IC50 [4]
2.1 µM: IC50 ([1]; read-out: IC50)

NNc1nncc2ccccc12 [HYDRALAZINE]
Not Active: IC50 (Thromboxane-A synthase) | IC50 ([1]; cho-k1) | IC50 (Mu-type opioid receptor) | IC50 [2] | IC50 [3] | Ki [3] | IC50 (Cytochrome P450 3A4) | Ki (Cytochrome P450 3A4) | IC50 [4]

CC(C)NNC(=O)c1ccncc1 [IPRONIAZID]
Not Active: IC50 (Thromboxane-A synthase) | IC50 ([1]; cho-k1) | IC50 (Mu-type opioid receptor) | IC50 [2] | IC50 [3] | Ki [3] | IC50 (Cytochrome P450 3A4) | Ki (Cytochrome P450 3A4) | IC50 [4]

Cc1c(OCC(F)(F)F)ccnc1C[S+]([O-])c1nc2ccccc2[nH]1 (stereo not drawn) [LANSOPRAZOLE]
Not Active: IC50 (Thromboxane-A synthase) | IC50 ([1]; cho-k1) | IC50 (Mu-type opioid receptor) | IC50 [2] | IC50 [3] | Ki [3] | IC50 (Cytochrome P450 3A4) | Ki (Cytochrome P450 3A4) | IC50 [4]

O=c1cc(N2CCOCC2)oc2c(-c3ccccc3)cccc12 [LY-294002]
23.4 µM: Ki [1]
Not Active: IC50 (Thromboxane-A synthase) | IC50 (Mu-type opioid receptor) | IC50 [2] | IC50 [3] | Ki [3] | IC50 (Cytochrome P450 3A4) | Ki (Cytochrome P450 3A4) | IC50 [4]
36.7 µM: IC50 ([1]; read-out: IC50)

COc1ccc2[nH]cc(CCNC(C)=O)c2c1 [MELATONIN]
Not Active: IC50 (Thromboxane-A synthase) | IC50 ([1]; cho-k1) | IC50 (Mu-type opioid receptor) | IC50 [2] | IC50 [3] | Ki [3] | IC50 (Cytochrome P450 3A4) | Ki (Cytochrome P450 3A4) | IC50 [4]

NC(=O)C[S+]([O-])C(c1ccccc1)c1ccccc1 (stereo not drawn) [MODAFINIL]
Not Active: IC50 (Thromboxane-A synthase) | IC50 ([1]; cho-k1) | IC50 (Mu-type opioid receptor) | IC50 [2] | IC50 [3] | Ki [3] | IC50 (Cytochrome P450 3A4) | Ki (Cytochrome P450 3A4) | IC50 [4]

CCN(CC)CCOCCC1=CCC2CC1C2(C)C (stereo not drawn) [MYRTECAINE]
Not Active: IC50 (Thromboxane-A synthase) | IC50 ([1]; cho-k1) | IC50 (Mu-type opioid receptor) | IC50 [2] | IC50 [3] | Ki [3] | IC50 (Cytochrome P450 3A4) | Ki (Cytochrome P450 3A4) | IC50 [4]

O=C(O)c1cccnc1Nc1cccc(C(F)(F)F)c1 [NIFLUMIC ACID]
Not Active: IC50 (Thromboxane-A synthase) | IC50 ([1]; cho-k1) | IC50 (Mu-type opioid receptor) | IC50 [2] | IC50 [3] | Ki [3] | IC50 (Cytochrome P450 3A4) | Ki (Cytochrome P450 3A4) | IC50 [4]

O=C(N/N=C/c1ccc([N+](=O)[O-])o1)c1cc([N+](=O)[O-])cc([N+](=O)[O-])c1O [NIFURSOL]
Not Active: IC50 (Thromboxane-A synthase) | IC50 ([1]; cho-k1) | IC50 (Mu-type opioid receptor) | IC50 [2] | IC50 [3] | Ki [3] | IC50 (Cytochrome P450 3A4) | Ki (Cytochrome P450 3A4) | IC50 [4]

COC(=O)Nc1nc2ccc(C(=O)c3cccs3)cc2[nH]1 [NOCODAZOLE]
Not Active: IC50 (Thromboxane-A synthase) | IC50 (Mu-type opioid receptor) | IC50 [2] | IC50 [3] | Ki [3] | IC50 (Cytochrome P450 3A4) | Ki (Cytochrome P450 3A4) | IC50 [4]
12.8 µM: Ki [1]
20.2 µM: IC50 ([1]; read-out: IC50)

C#CC1(O)CC[C@H]2[C@@H]3CCC4=CC(=O)CC[C@@H]4[C@H]3CC[C@@]21CC (stereo partly drawn) [NORGESTREL]
Not Active: IC50 (Thromboxane-A synthase) | IC50 ([1]; cho-k1) | IC50 (Mu-type opioid receptor) | IC50 [2] | IC50 [3] | Ki [3] | IC50 (Cytochrome P450 3A4) | Ki (Cytochrome P450 3A4) | IC50 [4]

COC(=O)Nc1nc2ccc([S+]([O-])c3ccccc3)cc2[nH]1 (stereo not drawn) [OXFENDAZOLE]
Not Active: IC50 (Thromboxane-A synthase) | IC50 ([1]; cho-k1) | IC50 (Mu-type opioid receptor) | IC50 [2] | IC50 [3] | Ki [3] | IC50 (Cytochrome P450 3A4) | Ki (Cytochrome P450 3A4) | IC50 [4]

CC(=O)O[C@H]1C(=O)[C@@]2(C)[C@H]([C@H](OC(=O)c3ccccc3)[C@]3(O)C[C@H](OC(=O)[C@H](O)[C@@H](NC(=O)c4ccccc4)c4ccccc4)C(C)=C1C3(C)C)[C@]1(OC(C)=O)CO[C@@H]1C[C@@H]2O [PACLITAXEL]
Not Active: IC50 (Thromboxane-A synthase) | IC50 ([1]; cho-k1) | IC50 (Mu-type opioid receptor) | IC50 [2] | IC50 [3] | Ki [3] | IC50 (Cytochrome P450 3A4) | Ki (Cytochrome P450 3A4) | IC50 [4]

CCn1cc(C(=O)O)c(=O)c2cnc(N3CCCC3)nc21 [PIROMIDIC ACID]
Not Active: IC50 (Thromboxane-A synthase) | IC50 ([1]; cho-k1) | IC50 (Mu-type opioid receptor) | IC50 [2] | IC50 [3] | Ki [3] | IC50 (Cytochrome P450 3A4) | Ki (Cytochrome P450 3A4) | IC50 [4]

C[n+]1ccccc1/C=N/O.[Cl-] [PRALIDOXIME CHLORIDE]
Not Active: IC50 (Thromboxane-A synthase) | IC50 ([1]; cho-k1) | IC50 (Mu-type opioid receptor) | IC50 [2] | IC50 [3] | Ki [3] | IC50 (Cytochrome P450 3A4) | Ki (Cytochrome P450 3A4) | IC50 [4]

COc1cc2nc(N3CCN(C(=O)c4ccco4)CC3)nc(N)c2cc1OC [PRAZOSIN]
2.62 µM: Ki [1]
4.12 µM: IC50 ([1]; read-out: IC50)
Not Active: IC50 (Thromboxane-A synthase) | IC50 (Mu-type opioid receptor) | IC50 [2] | IC50 [3] | Ki [3] | IC50 (Cytochrome P450 3A4) | Ki (Cytochrome P450 3A4) | IC50 [4]

C[C@]12C=CC(=O)C=C1CC[C@@H]1[C@@H]2[C@@H](O)C[C@@]2(C)[C@H]1CC[C@]2(O)C(=O)CO [PREDNISOLONE]
Not Active: IC50 (Thromboxane-A synthase) | IC50 ([1]; cho-k1) | IC50 (Mu-type opioid receptor) | IC50 [2] | IC50 [3] | Ki [3] | IC50 (Cytochrome P450 3A4) | Ki (Cytochrome P450 3A4) | IC50 [4]

— ChEMBL document CHEMBL1909046, “DrugMatrix in vitro pharmacology data”
